A word on the IC50: it is the concentration at which inhibition is half-maximal. As a reminder, the AC50 is the concentration giving half of the maximal activity seen.

In experiment [1] the target is T1, Bcl-2-related protein A1 (Mus musculus, UniProt Q07440).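 Further: confirmatory dose–response counterscreen on Bfl-1, used to check hits from a UBC13 polyubiquitin inhibitor campaign.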
T1 sequence (Q07440 whole entry): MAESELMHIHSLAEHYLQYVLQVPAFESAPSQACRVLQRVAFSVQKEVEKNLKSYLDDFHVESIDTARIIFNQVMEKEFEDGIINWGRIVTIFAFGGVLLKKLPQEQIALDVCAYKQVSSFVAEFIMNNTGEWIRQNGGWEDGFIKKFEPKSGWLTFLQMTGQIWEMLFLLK
The class given is functional.

Experiment [2] deals with T2, Ubiquitin-conjugating enzyme E2 N (Homo sapiens, UniProt P61088).
T2 sequence (P61088 whole entry): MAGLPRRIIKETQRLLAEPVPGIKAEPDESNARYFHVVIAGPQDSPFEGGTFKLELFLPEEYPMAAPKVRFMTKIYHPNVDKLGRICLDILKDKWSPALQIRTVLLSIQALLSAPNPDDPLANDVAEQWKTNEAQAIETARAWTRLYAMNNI
Type of experiment: functional.

In experiment [3] the target is T3, Aminopeptidase N (Plasmodium falciparum FcB1/Columbia, UniProt O96935).
T3 sequence (O96935 whole entry): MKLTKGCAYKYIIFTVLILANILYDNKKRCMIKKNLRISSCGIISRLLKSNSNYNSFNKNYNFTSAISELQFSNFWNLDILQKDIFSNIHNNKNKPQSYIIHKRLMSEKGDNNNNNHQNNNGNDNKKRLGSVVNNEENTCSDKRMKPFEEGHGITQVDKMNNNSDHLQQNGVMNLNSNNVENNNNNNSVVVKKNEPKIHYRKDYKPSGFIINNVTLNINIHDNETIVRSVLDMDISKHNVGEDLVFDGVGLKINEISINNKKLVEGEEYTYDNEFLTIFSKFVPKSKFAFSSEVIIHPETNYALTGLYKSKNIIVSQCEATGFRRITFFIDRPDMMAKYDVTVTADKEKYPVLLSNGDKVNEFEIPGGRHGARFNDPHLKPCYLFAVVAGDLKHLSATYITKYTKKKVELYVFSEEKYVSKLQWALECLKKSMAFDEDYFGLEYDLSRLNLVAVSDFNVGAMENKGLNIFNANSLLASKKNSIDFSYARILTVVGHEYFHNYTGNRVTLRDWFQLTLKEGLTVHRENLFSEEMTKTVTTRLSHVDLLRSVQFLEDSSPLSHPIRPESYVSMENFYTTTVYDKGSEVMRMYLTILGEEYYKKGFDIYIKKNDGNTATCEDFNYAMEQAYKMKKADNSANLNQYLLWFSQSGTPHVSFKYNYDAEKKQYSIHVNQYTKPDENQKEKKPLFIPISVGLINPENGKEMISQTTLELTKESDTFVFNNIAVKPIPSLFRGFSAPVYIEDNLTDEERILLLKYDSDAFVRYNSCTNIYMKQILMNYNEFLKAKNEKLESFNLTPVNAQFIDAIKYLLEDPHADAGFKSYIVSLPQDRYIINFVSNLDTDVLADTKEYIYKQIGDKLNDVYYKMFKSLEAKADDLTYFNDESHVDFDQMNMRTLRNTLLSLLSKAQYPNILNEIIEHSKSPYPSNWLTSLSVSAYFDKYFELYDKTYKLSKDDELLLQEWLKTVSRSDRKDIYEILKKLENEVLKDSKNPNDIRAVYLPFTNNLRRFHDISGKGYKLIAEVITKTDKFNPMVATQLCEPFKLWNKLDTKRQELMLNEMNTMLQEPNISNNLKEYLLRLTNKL
Description: P. falciparum M1AAP inhibitors, biochemical, fluorogenic H-Leu-NHMec substrate, 1536-well (AID 1445). On the set-up: species or system Plasmodium falciparum 3D7, 3D7.

In experiment [4] the target is T2, Ubiquitin-conjugating enzyme E2 N. Type of experiment: functional. The source holds these as a separate data set.
Experiment [5] has as its target T4, Aspartyl aminopeptidase (Plasmodium falciparum 3D7, UniProt Q8I2J3).
T4 sequence (Q8I2J3 whole entry): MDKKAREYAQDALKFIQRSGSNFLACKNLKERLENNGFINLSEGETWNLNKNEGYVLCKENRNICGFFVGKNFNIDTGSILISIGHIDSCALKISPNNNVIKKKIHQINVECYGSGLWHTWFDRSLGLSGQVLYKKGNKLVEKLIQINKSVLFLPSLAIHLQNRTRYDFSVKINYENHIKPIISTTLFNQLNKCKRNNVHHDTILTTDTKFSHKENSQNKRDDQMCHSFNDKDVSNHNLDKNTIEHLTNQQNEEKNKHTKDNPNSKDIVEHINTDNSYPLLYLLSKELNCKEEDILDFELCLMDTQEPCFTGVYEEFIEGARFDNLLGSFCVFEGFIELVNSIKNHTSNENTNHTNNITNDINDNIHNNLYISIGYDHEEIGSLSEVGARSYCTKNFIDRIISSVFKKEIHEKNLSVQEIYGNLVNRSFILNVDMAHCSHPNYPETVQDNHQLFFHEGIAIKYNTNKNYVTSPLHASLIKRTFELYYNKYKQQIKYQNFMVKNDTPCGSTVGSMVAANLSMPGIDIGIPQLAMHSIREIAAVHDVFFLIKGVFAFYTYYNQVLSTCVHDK
Description: Counterscreen for inhibitors of M1 and M17 aminopeptidases: QFRET-based biochemical high throughput dose response assay for inhibitors of the Plasmodium falciparum M18 Aspartyl Aminopeptidase (PFM18AAP). [Related PubChem assays: 1619 (Screening assay (M17LAP inhibitors).), 1445 (Screening assay (M1AAP inhibitors).)]. For orientation: A counterscreen serves to expose hits that act by an unwanted route or on another target.

In experiment [6] the target is Procathepsin L (Homo sapiens, UniProt P07711). Description: cathepsin L inhibitors, dose response, counter-screen for M1/M17 aminopeptidase inhibitor project, biochemical, QFRET, 1536-well (AID 2214).
Chain of Procathepsin L (P07711 whole entry): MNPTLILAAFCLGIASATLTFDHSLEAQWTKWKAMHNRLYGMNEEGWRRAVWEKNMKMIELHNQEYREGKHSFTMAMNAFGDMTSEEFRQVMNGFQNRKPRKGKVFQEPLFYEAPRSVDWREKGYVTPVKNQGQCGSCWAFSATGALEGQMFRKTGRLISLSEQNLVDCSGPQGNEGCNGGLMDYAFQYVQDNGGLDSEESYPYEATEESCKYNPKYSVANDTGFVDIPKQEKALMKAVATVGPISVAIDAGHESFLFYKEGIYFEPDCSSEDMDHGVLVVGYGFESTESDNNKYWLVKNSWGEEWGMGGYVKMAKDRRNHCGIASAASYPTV
A short description of experiment [7]: inhibitors of Bluetongue virus cytopathic effect, confirmation, arbovirus, BSR cells (AID 1250).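 Further: protection from viral cytopathic effect measured as cell viability by ATP luminescence.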 Type of experiment: functional.
The target in experiment [8] is T5, Aryl hydrocarbon receptor (Homo sapiens, UniProt P35869).
T5 sequence (P35869 whole entry): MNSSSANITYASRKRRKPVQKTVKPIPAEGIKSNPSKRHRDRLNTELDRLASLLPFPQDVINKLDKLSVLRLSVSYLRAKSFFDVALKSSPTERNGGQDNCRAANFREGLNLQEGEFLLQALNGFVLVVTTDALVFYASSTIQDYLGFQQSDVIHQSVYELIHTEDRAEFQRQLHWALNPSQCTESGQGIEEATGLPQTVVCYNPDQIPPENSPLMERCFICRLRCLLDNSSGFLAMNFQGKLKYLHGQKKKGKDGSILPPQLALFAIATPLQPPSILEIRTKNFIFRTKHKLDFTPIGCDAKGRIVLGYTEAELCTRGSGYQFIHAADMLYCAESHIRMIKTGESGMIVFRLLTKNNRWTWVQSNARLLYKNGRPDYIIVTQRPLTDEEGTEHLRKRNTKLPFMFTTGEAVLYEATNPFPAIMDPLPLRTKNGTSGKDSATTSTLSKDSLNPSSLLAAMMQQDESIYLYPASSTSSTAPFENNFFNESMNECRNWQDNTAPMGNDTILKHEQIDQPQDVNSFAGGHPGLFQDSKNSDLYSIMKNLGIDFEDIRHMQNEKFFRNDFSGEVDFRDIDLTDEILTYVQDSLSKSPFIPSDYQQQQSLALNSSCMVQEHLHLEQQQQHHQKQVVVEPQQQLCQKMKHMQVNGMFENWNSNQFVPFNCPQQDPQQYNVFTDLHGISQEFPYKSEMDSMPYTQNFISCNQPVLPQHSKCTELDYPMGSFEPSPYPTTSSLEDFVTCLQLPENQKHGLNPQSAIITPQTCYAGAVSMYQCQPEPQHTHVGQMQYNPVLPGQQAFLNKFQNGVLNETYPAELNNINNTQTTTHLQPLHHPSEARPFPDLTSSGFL
The experiment in a line: Luminescence-based cell-based high throughput dose response assay for activators of the Aryl Hydrocarbon Receptor (AHR). [Related pubchem assays: 2796 (Primary screen (AHR activators in singlicate)), 2845 (Confirmation screen (AHR activators in triplicate)), 434939 (Counterscreen (PXR activators in triplicate)), 2804 (Summary (AHR activators))]. The class given is ADME.

The target of experiment [9] is FAD-linked sulfhydryl oxidase ALR (Homo sapiens, UniProt P55789). The experiment in a line: inhibitors of human ALR sulfhydryl oxidase, dose response, biochemical, H2O2 detection, luminescence, cherry-pick (AID 493248).
Chain of FAD-linked sulfhydryl oxidase ALR (P55789 whole entry): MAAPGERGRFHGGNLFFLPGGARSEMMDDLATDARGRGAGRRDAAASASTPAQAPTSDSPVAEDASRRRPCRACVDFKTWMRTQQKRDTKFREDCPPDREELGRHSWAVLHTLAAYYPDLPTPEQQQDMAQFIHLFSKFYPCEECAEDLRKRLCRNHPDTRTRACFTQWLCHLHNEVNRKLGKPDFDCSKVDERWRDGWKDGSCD
Experiment [10] has as its target Mucolipin-3 (Homo sapiens, UniProt Q8TDD5). The experiment in a line: Dose response cell-based high-throughput screening assay for agonists of the transient receptor potential channel ML3 (TRPML3). [Related pubchem assays: 1526, 1424, 1448 ]. The class given is functional.
In experiment [11] the target is Ion channel NompC (Danio rerio, UniProt Q7T1G6). Description: Fluorescence counterscreen assay for TRPML3 agonists: dose response cell-based high-throughput screening assay to identify agonists of the transient receptor potential channel N1 (TRPN1). [Related pubchem assays: 1526, 1424, 1448 ]. The class given is functional.
Chain of Ion channel NompC (Q7T1G6 whole entry): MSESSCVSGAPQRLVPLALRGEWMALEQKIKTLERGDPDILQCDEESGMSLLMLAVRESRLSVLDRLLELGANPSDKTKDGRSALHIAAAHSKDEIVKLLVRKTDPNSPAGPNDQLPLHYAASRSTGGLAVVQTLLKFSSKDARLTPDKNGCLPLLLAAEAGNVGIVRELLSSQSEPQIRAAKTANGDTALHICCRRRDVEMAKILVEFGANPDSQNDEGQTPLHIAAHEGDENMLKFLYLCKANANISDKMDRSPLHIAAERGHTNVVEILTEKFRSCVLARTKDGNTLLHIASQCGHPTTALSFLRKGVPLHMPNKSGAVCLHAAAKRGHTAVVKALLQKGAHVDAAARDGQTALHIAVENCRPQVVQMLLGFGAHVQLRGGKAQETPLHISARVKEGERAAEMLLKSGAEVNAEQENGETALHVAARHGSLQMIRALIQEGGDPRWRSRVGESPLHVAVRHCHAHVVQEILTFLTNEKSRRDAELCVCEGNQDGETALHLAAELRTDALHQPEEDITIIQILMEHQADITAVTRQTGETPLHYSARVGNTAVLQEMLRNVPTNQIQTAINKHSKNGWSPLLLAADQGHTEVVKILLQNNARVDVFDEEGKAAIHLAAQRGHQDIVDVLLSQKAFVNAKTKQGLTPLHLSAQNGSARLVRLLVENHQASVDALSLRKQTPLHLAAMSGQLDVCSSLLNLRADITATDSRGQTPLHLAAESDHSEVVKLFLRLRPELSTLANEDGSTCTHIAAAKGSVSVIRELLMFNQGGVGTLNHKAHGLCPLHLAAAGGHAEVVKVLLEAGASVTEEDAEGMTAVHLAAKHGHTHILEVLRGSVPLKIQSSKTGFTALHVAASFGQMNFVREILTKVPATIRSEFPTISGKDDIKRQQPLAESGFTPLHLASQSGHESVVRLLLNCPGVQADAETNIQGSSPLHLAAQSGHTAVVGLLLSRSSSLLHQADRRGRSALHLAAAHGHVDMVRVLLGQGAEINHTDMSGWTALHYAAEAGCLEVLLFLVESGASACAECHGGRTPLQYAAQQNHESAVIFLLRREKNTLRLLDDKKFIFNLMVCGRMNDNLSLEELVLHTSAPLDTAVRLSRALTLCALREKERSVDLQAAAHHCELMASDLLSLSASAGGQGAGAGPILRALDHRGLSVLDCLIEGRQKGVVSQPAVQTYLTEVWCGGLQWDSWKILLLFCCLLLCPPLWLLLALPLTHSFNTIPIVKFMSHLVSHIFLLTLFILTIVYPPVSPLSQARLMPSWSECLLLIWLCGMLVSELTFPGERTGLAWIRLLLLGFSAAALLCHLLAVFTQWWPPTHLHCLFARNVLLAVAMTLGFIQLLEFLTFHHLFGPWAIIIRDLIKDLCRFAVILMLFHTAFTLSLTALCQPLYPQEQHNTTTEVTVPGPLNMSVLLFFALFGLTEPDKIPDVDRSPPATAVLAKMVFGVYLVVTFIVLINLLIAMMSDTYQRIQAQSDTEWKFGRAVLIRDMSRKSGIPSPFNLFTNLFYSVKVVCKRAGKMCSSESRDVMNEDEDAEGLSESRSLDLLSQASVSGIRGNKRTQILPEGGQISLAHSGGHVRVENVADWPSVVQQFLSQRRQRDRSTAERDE
Experiment [12] in a line: Luminescence Cell-Based Dose Confirmation HTS to Identify Inhibitors of Polyadenylation. Type of experiment: functional.
Experiment [13] deals with T6, Corticotropin-releasing factor receptor 2/Corticotropin-releasing factor-binding protein (Homo sapiens, UniProt P24387+Q13324).
T6 sequence (Q13324 whole entry): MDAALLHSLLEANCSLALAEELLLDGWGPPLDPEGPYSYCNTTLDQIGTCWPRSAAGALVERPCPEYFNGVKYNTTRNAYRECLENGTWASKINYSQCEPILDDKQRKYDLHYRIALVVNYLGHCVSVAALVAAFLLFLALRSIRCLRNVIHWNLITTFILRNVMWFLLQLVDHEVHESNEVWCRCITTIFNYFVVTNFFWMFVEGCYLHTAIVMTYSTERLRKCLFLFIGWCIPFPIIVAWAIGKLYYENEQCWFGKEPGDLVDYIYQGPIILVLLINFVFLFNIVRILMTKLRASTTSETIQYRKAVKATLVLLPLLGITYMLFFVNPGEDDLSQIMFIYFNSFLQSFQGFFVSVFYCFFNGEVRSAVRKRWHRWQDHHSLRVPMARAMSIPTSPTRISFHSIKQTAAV
T6 sequence (P24387 whole entry): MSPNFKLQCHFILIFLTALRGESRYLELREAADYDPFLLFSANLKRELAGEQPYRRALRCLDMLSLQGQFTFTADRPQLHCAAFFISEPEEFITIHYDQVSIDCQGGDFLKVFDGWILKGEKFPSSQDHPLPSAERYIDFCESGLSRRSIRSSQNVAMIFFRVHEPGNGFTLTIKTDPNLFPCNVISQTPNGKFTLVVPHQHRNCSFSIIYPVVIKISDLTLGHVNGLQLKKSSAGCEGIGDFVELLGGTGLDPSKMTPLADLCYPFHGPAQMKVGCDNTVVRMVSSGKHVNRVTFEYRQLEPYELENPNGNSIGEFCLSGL
Description: activators of CRF receptor 2 with binding protein – uHTS hits, confirmation (AID 602473). Conditions: read-out: EC50_Mean. Type of experiment: functional.

The target in experiment [14] is Serine/threonine-protein phosphatase PP1-alpha catalytic subunit (Homo sapiens, UniProt P62136). Description: PP1 phosphatase inhibitors, dose response, biochemical, fluorescence (AID 2394).
Chain of Serine/threonine-protein phosphatase PP1-alpha catalytic subunit (P62136 whole entry): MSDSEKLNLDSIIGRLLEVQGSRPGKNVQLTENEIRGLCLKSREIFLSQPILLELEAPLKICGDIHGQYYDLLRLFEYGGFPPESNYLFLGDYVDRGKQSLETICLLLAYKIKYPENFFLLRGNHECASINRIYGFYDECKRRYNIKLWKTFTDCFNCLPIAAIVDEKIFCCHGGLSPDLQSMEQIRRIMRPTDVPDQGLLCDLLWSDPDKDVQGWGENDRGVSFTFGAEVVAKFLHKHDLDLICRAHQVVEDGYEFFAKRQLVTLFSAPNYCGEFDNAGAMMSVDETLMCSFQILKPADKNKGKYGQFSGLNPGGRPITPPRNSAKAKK
The target in experiment [15] is T7, Serine/threonine-protein phosphatase (Homo sapiens, UniProt Q9BPW0).
T7 sequence (Q9BPW0 whole entry): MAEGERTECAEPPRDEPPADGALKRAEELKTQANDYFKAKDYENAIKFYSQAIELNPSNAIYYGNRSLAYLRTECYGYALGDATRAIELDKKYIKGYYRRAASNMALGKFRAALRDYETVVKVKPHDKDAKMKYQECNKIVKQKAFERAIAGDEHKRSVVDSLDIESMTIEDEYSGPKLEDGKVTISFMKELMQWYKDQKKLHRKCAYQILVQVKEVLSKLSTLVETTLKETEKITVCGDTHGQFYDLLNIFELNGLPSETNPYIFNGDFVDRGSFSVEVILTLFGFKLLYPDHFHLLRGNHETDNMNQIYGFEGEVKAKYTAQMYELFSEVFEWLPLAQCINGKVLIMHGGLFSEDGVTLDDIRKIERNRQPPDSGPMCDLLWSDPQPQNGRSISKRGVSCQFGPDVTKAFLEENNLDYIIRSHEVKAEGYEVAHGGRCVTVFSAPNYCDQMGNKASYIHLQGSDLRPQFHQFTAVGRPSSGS
The experiment in a line: PP5 phosphatase inhibitors, dose response, biochemical, fluorescence (AID 2395).

Active and inactive are the calls of the source. Some results are limits rather than exact numbers.

Chain of Mucolipin-3 (Q8TDD5 whole entry): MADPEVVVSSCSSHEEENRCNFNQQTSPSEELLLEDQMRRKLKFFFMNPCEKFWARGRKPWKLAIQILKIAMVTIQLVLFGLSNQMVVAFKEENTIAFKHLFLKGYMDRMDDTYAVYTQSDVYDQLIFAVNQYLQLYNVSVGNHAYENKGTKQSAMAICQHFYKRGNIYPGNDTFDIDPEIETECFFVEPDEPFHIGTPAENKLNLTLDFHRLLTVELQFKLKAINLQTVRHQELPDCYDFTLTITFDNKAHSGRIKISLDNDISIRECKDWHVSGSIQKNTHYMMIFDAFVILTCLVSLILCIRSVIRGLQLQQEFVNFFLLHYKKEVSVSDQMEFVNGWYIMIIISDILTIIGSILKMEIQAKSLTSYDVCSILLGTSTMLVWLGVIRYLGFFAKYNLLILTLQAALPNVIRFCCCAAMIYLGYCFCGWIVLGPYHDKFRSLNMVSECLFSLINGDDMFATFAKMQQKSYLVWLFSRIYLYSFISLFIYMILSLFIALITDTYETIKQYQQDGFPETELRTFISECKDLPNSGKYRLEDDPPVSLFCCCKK

As to `CC(=O)N1NC(=C2C(=O)N(C)C(=O)N(C)C2=O)CC1c1ccccc1` (stereo not drawn), the IC50 in [1] is > 20 µM (inactive); in [2], 12.5 µM (active); in experiment [3] it was 16 µM (active); in experiment [4] it was 19.5 µM (active); in [5], > 73.5 µM (not active); in [6], > 59.6 µM (not active).

In the case of `Cc1cccc(C)c1Nc1nc2ccccc2o1`, in experiment [7], the IC50 is 26.7 µM (active).

For `COc1ccccc1C(=O)Nc1ccc(N2CCCCC2)cc1`, in experiment [8], the EC50 was 2.91 µM (active). Further, in [9], the AC50 is 13.4 µM (active).

On to `COc1ccc(N2C(=O)C(F)(F)C2c2ccccc2F)cc1` (stereo not drawn), for which the EC50 is 3.96 µM (active) in [10] and > 29.9 µM (not active) in [11].

For the molecule `Cc1cc(Cl)ccc1C(=O)C1CCCN(C(=O)c2snnc2C)C1` (stereo not drawn), the EC50 in experiment [12] is listed as > 120 µM (not active).

For `COc1ccccc1N(CC(=O)N1CCCCC1)S(=O)(=O)c1ccccc1`, the EC50 in [10] was 0.59 µM (active); in experiment [13], 8.61 µM (active); in experiment [11], 12.4 µM (not active).

For `CCCCC1=NN2C(=N)/C(=C/c3c[nH]c4ccccc34)C(=O)N=C2S1`, the IC50 in [7] is 61.7 µM (active).

For `COC(=O)CCC(=O)OC1(C)C(=O)C2=CN(CC(C)C)C(c3ccc(OC)cc3)=CC2=C(Br)C1=O` (stereo not drawn), the IC50 in experiment [14] is reported as 28.3 µM (not active); in [15] it was 37.5 µM (not active).

These data come from ChEMBL document CHEMBL1201862, “PubChem BioAssay data set” (2004).
